PubChem BioAssay AID328 (DTP/NCI, 2004)
“And” between values parts separate entries of the source, which are not always exact repeats. Equal entries are not always repeated. Toxic doses and inconclusive results are not listed. Rule for the calls: active = survival T/C of 150% or more; inactive = T/C below 125% in these data. Non-standard residues stand in square brackets, D forms with d. Residues, ends and D or L forms follow the SMILES beside them. ξ: configuration not given here. ξF = NC(Cc1ccccc1)C(=O)O

Test system: BDF1 mice, P388 leukemia ip, median survival T/C
Test: NCI In Vivo Anticancer Drug Screen. Data for tumor model P388 Leukemia (intraperitoneal) in B6D2F1 (BDF1) mice
Conditions: endpoint: median survival time, higher = longer survival
Method in brief: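 T/C = treated-group survival ÷ vehicle-control survival; tumour transplanted into mice before dosing.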

[1] = dose: 100.0 mg/kg/injection, schedule: Q04DX003 (ip), vehicle: Klucel (hydroxypropylcellulose) (HPC)
[2] = dose: 200.0 mg/kg/injection, schedule: Q04DX003 (ip), vehicle: Klucel (hydroxypropylcellulose) (HPC)
[3] = dose: 50.0 mg/kg/injection, schedule: Q01DX001 (ip), vehicle: saline
[4] = dose: 100.0 mg/kg/injection, schedule: Q01DX001 (ip), vehicle: saline
[5] = dose: 100.0 mg/kg/injection, schedule: Q01DX009 (ip), vehicle: saline
[6] = dose: 25.0 mg/kg/injection, schedule: Q01DX009 (ip), vehicle: saline
[7] = dose: 100.0 mg/kg/injection, schedule: Q04DX003 (ip), vehicle: saline
[8] = dose: 200.0 mg/kg/injection, schedule: Q01DX001 (ip), vehicle: saline
[9] = dose: 100.0 mg/kg/injection, schedule: Q04DX003 (ip), vehicle: saline with Tween-80
[10] = dose: 200.0 mg/kg/injection, schedule: Q04DX003 (ip), vehicle: saline with Tween-80

Measured: T/C

CC1(C)C2CCC([CH2][Hg][Cl])C1C2 (stereo unspecified)
inactive: dose: 1.5 mg/kg/injection, schedule: Q01DX009 (ip), vehicle: Klucel (hydroxypropylcellulose) (HPC) 90 % of control | dose: 3.0 mg/kg/injection, schedule: Q01DX009 (ip), vehicle: Klucel (hydroxypropylcellulose) (HPC) 100 % of control | dose: 6.0 mg/kg/injection, schedule: Q01DX009 (ip), vehicle: Klucel (hydroxypropylcellulose) (HPC) 90 % of control | dose: 12.0 mg/kg/injection, schedule: Q01DX009 (ip), vehicle: Klucel (hydroxypropylcellulose) (HPC) 104 % of control | dose: 25.0 mg/kg/injection, schedule: Q01DX009 (ip), vehicle: saline with Tween-80 115 % of control

CC(=O)Nc1ccc(N=Nc2ccccc2)cc1F
inactive: dose: 100.0 mg/kg/injection, schedule: Q01DX009 (ip), vehicle: Klucel (hydroxypropylcellulose) (HPC) 120 % of control | [1] 104 % of control | [2] 108 % of control | dose: 400.0 mg/kg/injection, schedule: Q01DX009 (ip), vehicle: Klucel (hydroxypropylcellulose) (HPC) 120 % of control | dose: 400.0 mg/kg/injection, schedule: Q04DX003 (ip), vehicle: Klucel (hydroxypropylcellulose) (HPC) 95 % of control

CCCCNC(=O)c1ccccc1Sc1ccccc1C(=O)NCCCC
inactive: dose: 100.0 mg/kg/injection, schedule: Q04DX002 (ip), vehicle: saline with Tween-80 107 % of control | dose: 200.0 mg/kg/injection, schedule: Q04DX002 (ip), vehicle: saline with Tween-80 109 % of control | dose: 400.0 mg/kg/injection, schedule: Q04DX002 (ip), vehicle: saline with Tween-80 104 % of control

O=C(C=C(C(F)(F)F)C(F)(F)F)c1ccc(F)cc1
inactive: dose: 6.25 mg/kg/injection, schedule: Q01DX009 (ip), vehicle: Klucel (hydroxypropylcellulose) (HPC) 101 % of control | dose: 6.25 mg/kg/injection, schedule: Q01DX009 (ip), vehicle: other 100 % of control | dose: 12.5 mg/kg/injection, schedule: Q01DX009 (ip), vehicle: Klucel (hydroxypropylcellulose) (HPC) 105 % of control | dose: 12.5 mg/kg/injection, schedule: Q01DX009 (ip), vehicle: other 109 % of control | dose: 16.5 mg/kg/injection, schedule: Q01DX009 (ip), vehicle: other 113 % of control | dose: 25.0 mg/kg/injection, schedule: Q01DX009 (ip), vehicle: Klucel (hydroxypropylcellulose) (HPC) 118 % of control | dose: 25.0 mg/kg/injection, schedule: Q01DX009 (ip), vehicle: other 118 % of control

C[N+](C)(C)CCC[n+]1ccc(CCn2ccc3ccccc32)cc1
inactive: dose: 25.0 mg/kg/injection, schedule: Q01DX001 (ip), vehicle: saline 100 % of control | [3] 105 % of control | [4] 105 % of control

C#CC1(O)CC[C@H]2[C@@H]3CCC4=CCCC[C@@H]4[C@H]3CC[C@@]21C (stereo partly specified)
inactive: [5] 95 % of control | dose: 100.0 mg/kg/injection, schedule: Q04DX003 (ip), vehicle: alcohol 100 % of control | dose: 200.0 mg/kg/injection, schedule: Q01DX009 (ip), vehicle: saline 90 % of control | dose: 200.0 mg/kg/injection, schedule: Q04DX003 (ip), vehicle: alcohol 95 % of control | dose: 400.0 mg/kg/injection, schedule: Q01DX009 (ip), vehicle: saline 86 % of control | dose: 400.0 mg/kg/injection, schedule: Q04DX003 (ip), vehicle: alcohol 105 % of control

CCCCCCCCN(N)C12CC3CC(CC(C3)C1)C2
inactive: dose: 12.5 mg/kg/injection, schedule: Q01DX009 (ip), vehicle: saline 116 % of control | dose: 12.5 mg/kg/injection, schedule: Q04DX003 (ip), vehicle: saline 90 % of control | [6] 119 % of control | dose: 25.0 mg/kg/injection, schedule: Q04DX003 (ip), vehicle: saline 100 % of control | dose: 50.0 mg/kg/injection, schedule: Q04DX003 (ip), vehicle: saline 94 % of control | [7] 100 % of control

CCOC(=O)C1CN(Cc2ccccc2)CCC1=O (stereo unspecified)
inactive: [3] 104 % of control | [4] 95 % of control | [8] 90 % of control

O=C1OC(=O)C2C1C1C3C=CC3C1C21C=C1 (stereo unspecified)
inactive: dose: 85.0 mg/kg/injection, schedule: Q04DX003 (ip), vehicle: Klucel (hydroxypropylcellulose) (HPC) 95 % of control | [4] 113 % of control and 116 % of control | dose: 135.0 mg/kg/injection, schedule: Q04DX003 (ip), vehicle: Klucel (hydroxypropylcellulose) (HPC) 104 % of control | [8] 113 % of control | [2] 113 % of control | dose: 300.0 mg/kg/injection, schedule: Q04DX003 (ip), vehicle: Klucel (hydroxypropylcellulose) (HPC) 118 % of control | dose: 400.0 mg/kg/injection, schedule: Q01DX001 (ip), vehicle: saline 100 % of control and 104 % of control

Cc1c(N)nc(=S)[nH]c1C(=O)O
inactive: dose: 50.0 mg/kg/injection, schedule: Q04DX003 (ip), vehicle: Klucel (hydroxypropylcellulose) (HPC) 113 % of control | dose: 100.0 mg/kg/injection, schedule: Q01DX001 (ip), vehicle: Klucel (hydroxypropylcellulose) (HPC) 109 % of control | [1] 100 % of control | dose: 200.0 mg/kg/injection, schedule: Q01DX001 (ip), vehicle: Klucel (hydroxypropylcellulose) (HPC) 109 % of control | [2] 100 % of control | dose: 400.0 mg/kg/injection, schedule: Q01DX001 (ip), vehicle: Klucel (hydroxypropylcellulose) (HPC) 104 % of control

CN1c2ccc3ccccc3c2Sc2ccc3ccccc3c21
inactive: dose: 100.0 mg/kg/injection, schedule: Q01DX009 (ip), vehicle: saline with Tween-80 113 % of control | [9] 100 % of control | dose: 200.0 mg/kg/injection, schedule: Q01DX009 (ip), vehicle: saline with Tween-80 104 % of control | [10] 95 % of control | dose: 400.0 mg/kg/injection, schedule: Q01DX009 (ip), vehicle: saline with Tween-80 104 % of control | dose: 400.0 mg/kg/injection, schedule: Q04DX003 (ip), vehicle: saline with Tween-80 90 % of control

CCN(CC)C(C)CN1c2ccccc2Sc2ccccc21 (stereo unspecified)
inactive: [6] 100 % of control | dose: 50.0 mg/kg/injection, schedule: Q01DX009 (ip), vehicle: saline 112 % of control | [5] 116 % of control

CCCN(CCC)CCCC#N
inactive: dose: 50.0 mg/kg/injection, schedule: Q04DX003 (ip), vehicle: saline with Tween-80 100 % of control | [9] 100 % of control | [10] 100 % of control

NC(Cc1ccccc1)C(=O)NCC(=O)O (stereo unspecified) (H-[ξF]-Gly-OH)
inactive: [7] 100 % of control | dose: 200.0 mg/kg/injection, schedule: Q04DX003 (ip), vehicle: saline 100 % of control | dose: 400.0 mg/kg/injection, schedule: Q04DX003 (ip), vehicle: saline 100 % of control

CC1CC(=O)C(O)C2(C)C1CC1OC(=O)C(OC(=O)c3ccccc3)C3C(C)C(O)C4(O)OCC13C42 (stereo unspecified)
inactive: dose: 0.12 mg/kg/injection, schedule: Q01DX009 (ip), vehicle: saline with Tween-80 110 % of control | dose: 0.25 mg/kg/injection, schedule: Q01DX009 (ip), vehicle: saline with Tween-80 121 % of control | dose: 1.0 mg/kg/injection, schedule: Q01DX009 (ip), vehicle: saline with Tween-80 118 % of control | dose: 2.0 mg/kg/injection, schedule: Q01DX009 (ip), vehicle: saline with Tween-80 121 % of control | dose: 4.0 mg/kg/injection, schedule: Q01DX009 (ip), vehicle: saline with Tween-80 112 % of control | dose: 8.0 mg/kg/injection, schedule: Q01DX009 (ip), vehicle: saline with Tween-80 116 % of control | dose: 16.0 mg/kg/injection, schedule: Q01DX009 (ip), vehicle: saline with Tween-80 118 % of control

Cc1ccc(S(=O)(=O)OC2CCCCCCCCCCC2=O)cc1 (stereo unspecified)
inactive: dose: 25.0 mg/kg/injection, schedule: Q04DX003 (ip), vehicle: other 99 % of control | dose: 50.0 mg/kg/injection, schedule: Q04DX003 (ip), vehicle: other 96 % of control | dose: 100.0 mg/kg/injection, schedule: Q04DX003 (ip), vehicle: other 95 % of control
